The text below walks through data of patent US10689367B2, “Triazole pyridyl compounds as agonists of the APJ receptor” (AMGEN INC., priority 2016, dated 2020).

pEC50: −log10 of the molar value.

For orientation: pEC50 means the negative decadic logarithm of the EC50, by convention in mol/L.

Chain of human APJ receptor (P35414 whole entry): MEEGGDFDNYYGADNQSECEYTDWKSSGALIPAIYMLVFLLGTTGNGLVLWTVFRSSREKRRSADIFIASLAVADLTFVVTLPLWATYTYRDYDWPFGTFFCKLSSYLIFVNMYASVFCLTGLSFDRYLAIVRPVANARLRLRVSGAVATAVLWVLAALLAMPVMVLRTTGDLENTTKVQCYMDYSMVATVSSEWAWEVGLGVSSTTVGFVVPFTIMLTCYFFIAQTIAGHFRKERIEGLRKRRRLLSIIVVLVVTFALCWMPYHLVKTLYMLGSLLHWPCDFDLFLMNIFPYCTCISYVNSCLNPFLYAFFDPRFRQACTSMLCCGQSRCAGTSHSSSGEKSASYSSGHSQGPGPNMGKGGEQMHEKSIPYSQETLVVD

For this test, the target named is human APJ receptor (Homo sapiens (Human), UniProt P35414). Kind of test: [35S]GTPγS binding assay on membranes from CHO cells stably expressing human APJ receptor. The test is classed as biochemical. The following applies: membranes of CHO cells stably expressing human APJ receptor, read-out: Activity hAPJ SPA EC50 IP. The essentials:
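Agonist EC50 values come from non-linear regression of mean data from several independent runs. Membranes of CHO cells stably expressing human APJ were incubated 90 min at room temperature with [35S]GTPγS in buffer with optimized GDP, MgCl2 and NaCl, then read on a microplate imager.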
For orientation: Binding of GTPγS marks nucleotide exchange on a G protein.
For the compound `COc1cccc(-c2nnc(NS(=O)(=O)[C@@H](C)[C@H](OC)c3ncc(Cl)cn3)n2[C@H](C)c2cncs2)n1` (single isomer, unassigned) [Example 347.0, (1R,2S)-1-(5-chloropyrimidin-2-yl)-1-methoxy-N-(5-(6-methoxypyridin-2-yl)-4-((R)-1-(thiazol-5-yl)ethyl)-4H-1,2,4-triazol-3-yl)propane-2-sulfonamide or (1R,2S)-1-(5-chloropyrimidin-2-yl)-1-methoxy-N-(5-(6-methoxypyridin-2-yl)-4-((S)-1-(thiazol-5-yl)ethyl)-4H-1,2,4-triazol-3-yl)propane-2-sulfonamide], the pEC50 is 9.32. With `COc1cccc(-c2nnc(NS(=O)(=O)[C@@H](C)[C@H](OC)c3ncc(Cl)cn3)n2[C@@H](C)c2noc(C)n2)n1` (single isomer, unassigned) [Example 243.0, (1R,2S)-1-(5-chloro-2-pyrimidinyl)-1-methoxy-N-(5-(6-methoxy-2-pyridinyl)-4-((1S)-1-(5-methyl-1,2,4-oxadiazol-3-yl)ethyl)-4H-1,2,4-triazol-3-yl)-2-propanesulfonamide or (1R,2S)-1-(5-chloro-2-pyrimidinyl)-1-methoxy-N-(5-(6-methoxy-2-pyridinyl)-4-((1R)-1-(5-methyl-1,2,4-oxadiazol-3-yl)ethyl)-4H-1,2,4-triazol-3-yl)-2-propanesulfonamide] the figure was 8.43; with `COCC1(n2c(NS(=O)(=O)[C@@H](C)[C@H](OC)c3ncc(C)cn3)nnc2-c2ccccn2)CC1` [Example 67.0], 7.62.

Consider `COc1cccc(-c2nnc(NS(=O)(=O)[C@@H](C)[C@H](C)c3ncc(Cl)cn3)n2[C@@H](C)c2ncn(C)n2)n1` (single isomer, unassigned) [Example 238.0, (2S,3R)-3-(5-chloro-2-pyrimidinyl)-N-(5-(6-methoxy-2-pyridinyl)-4-((1R)-1-(1-methyl-1H-1,2,4-triazol-3-yl)ethyl)-4H-1,2,4-triazol-3-yl)-2-butanesulfonamide or (2S,3R)-3-(5-chloro-2-pyrimidinyl)-N-(5-(6-methoxy-2-pyridinyl)-4-((1S)-1-(1-methyl-1H-1,2,4-triazol-3-yl)ethyl)-4H-1,2,4-triazol-3-yl)-2-butanesulfonamide], for which the pEC50 is 8.21. With `CCC(CC)n1c(NS(=O)(=O)[C@@H](C)[C@H](OC)c2ncc(Cl)cn2)nnc1-c1ccccn1` [Example 47.0] the figure was 8.28; with `COC[C@@H](C)n1c(NS(=O)(=O)[C@@H](C)[C@H](C)c2ncc(Cl)cn2)nnc1-c1cccnc1` (single isomer, unassigned) [Example 52.0], 7.80. To `CCc1noc(C)c1Cn1c(NS(=O)(=O)[C@@H](C)[C@H](C)c2ncc(Cl)cn2)nnc1-c1cccc(OC)n1` [Example 193.0, (2S,3R)-3-(5-chloro-2-pyrimidinyl)-N-(4-((3-ethyl-5-methyl-1,2-oxazol-4-yl)methyl)-5-(6-methoxy-2-pyridinyl)-4H-1,2,4-triazol-3-yl)-2-butanesulfonamide] belongs 6.37; to `COc1cccc(-c2nnc(NS(=O)(=O)[C@@H](C)[C@H](OC)c3ncc(Cl)cn3)n2[C@@H](C)c2c(C)noc2C)n1` (racemic) [Example 310.0, (1R,2S)-1-(5-chloropyrimidin-2-yl)-N-(4-((R)-1-(3,5-dimethylisoxazol-4-yl)ethyl)-5-(6-methoxypyridin-2-yl)-4H-1,2,4-triazol-3-yl)-1-methoxypropane-2-sulfonamide or (1R,2S)-1-(5-chloropyrimidin-2-yl)-N-(4-((S)-1-(3,5-dimethylisoxazol-4-yl)ethyl)-5-(6-methoxypyridin-2-yl)-4H-1,2,4-triazol-3-yl)-1-methoxypropane-2-sulfonamide], 8.13. With “(1R,2S)-1-(5-chloropyrimidin-2-yl)-1-methoxy-N-(5-(6-methoxypyridin-2-yl)-4-(((S)-oxetan-2-yl)methyl)-4H-1,2,4-triazol-3-yl)propane-2-sulfonamide or (1R,2S)-1-(5-chloropyrimidin-2-yl)-1-methoxy-N-(5-(6-methoxypyridin-2-yl)-4-(((R)-oxetan-2-yl)methyl)-4H-1,2,4-triazol-3-yl)propane-2-sulfonamide [Example 140.0]” the figure was 7.38; with `COc1cccc(-c2nnc(NS(=O)(=O)[C@@H](C)[C@@H](OC(C)C)c3ncc(C)cn3)n2[C@@H](C)c2ncc(C)o2)n1` (single isomer, unassigned) [Example 242.0, (1S,2S)-N-(5-(6-methoxy-2-pyridinyl)-4-((1S)-1-(5-methyl-1,3-oxazol-2-yl)ethyl)-4H-1,2,4-triazol-3-yl)-1-(5-methyl-2-pyrimidinyl)-1-(2-propanyloxy)-2-propanesulfonamide or (1S,2S)-N-(5-(6-methoxy-2-pyridinyl)-4-((1S)-1-(5-methyl-1,3-oxazol-2-yl)ethyl)-4H-1,2,4-triazol-3-yl)-1-(5-methyl-2-pyrimidinyl)-1-(2-propanyloxy)-2-propanesulfonamide], 7.89; with `CO[C@H](c1ncc(Cl)cn1)[C@H](C)S(=O)(=O)Nc1nnc(-c2ccncc2)n1C(C)C` [Example 135.0, (1R,2S)-1-(5-chloro-2-pyrimidinyl)-1-methoxy-N-(4-(2-propanyl)-5-(4-pyridinyl)-4H-1,2,4-triazol-3-yl)-2-propanesulfonamide], 5.72. Take `CCc1noc(C)c1Cn1c(NS(=O)(=O)[C@@H](C)[C@@H](OC(C)C)c2ncc(C)cn2)nnc1-c1cccc(OC)n1` [Example 194.0, (1S,2S)-N-(4-((3-ethyl-5-methyl-1,2-oxazol-4-yl)methyl)-5-(6-methoxy-2-pyridinyl)-4H-1,2,4-triazol-3-yl)-1-(5-methyl-2-pyrimidinyl)-1-(2-propanyloxy)-2-propanesulfonamide]: the pEC50 was 7.25. To `COc1cccc(-c2nnc(NS(=O)(=O)[C@@H](C)[C@@H](OC(C)C)c3ncc(C)cn3)n2[C@@H](C)c2ncnn2C)n1` (single isomer, unassigned) [Example 253.0, (1S,2S)-N-(5-(6-methoxy-2-pyridinyl)-4-((1R)-1-(1-methyl-1H-1,2,4-triazol-5-yl)ethyl)-4H-1,2,4-triazol-3-yl)-1-(5-methyl-2-pyrimidinyl)-1-(2-propanyloxy)-2-propanesulfonamide or (1S,2S)-N-(5-(6-methoxy-2-pyridinyl)-4-((1S)-1-(1-methyl-1H-1,2,4-triazol-5-yl)ethyl)-4H-1,2,4-triazol-3-yl)-1-(5-methyl-2-pyrimidinyl)-1-(2-propanyloxy)-2-propanesulfonamide] belongs 7.49; to `COc1cccc(-c2nnc(NS(=O)(=O)[C@@H](C)[C@H](OC)c3ncc(Cl)cn3)n2[C@H]2C[C@@H](OC)C2)n1` [Example 180.0, (1R,2S)-1-(5-chloro-2-pyrimidinyl)-1-methoxy-N-(4-(cis-3-methoxycyclobutyl)-5-(6-methoxy-2-pyridinyl)-4H-1,2,4-triazol-3-yl)-2-propanesulfonamide], 7.13. With `COc1cccc(-c2nnc(NS(=O)(=O)[C@@H](C)[C@H](C)c3ncc(Cl)cn3)n2Cc2cc(C)on2)n1` [Example 272.0, (2S,3R)-3-(5-chloropyrimidin-2-yl)-N-(5-(6-methoxypyridin-2-yl)-4-((5-methylisoxazol-3-yl)methyl)-4H-1,2,4-triazol-3-yl)butane-2-sulfonamide] the figure was 7.92; with `COc1cccc(-c2nnc(NS(=O)(=O)[C@@H](C)[C@H](OC)c3ncc(Cl)cn3)n2[C@H](C)c2cnn(C)c2)n1` (single isomer, unassigned) [Example 339.0, (1R,2S)-1-(5-chloropyrimidin-2-yl)-1-methoxy-N-(5-(6-methoxypyridin-2-yl)-4-((R)-1-(1-methyl-1H-pyrazol-4-yl)ethyl)-4H-1,2,4-triazol-3-yl)propane-2-sulfonamide or (1R,2S)-1-(5-chloropyrimidin-2-yl)-1-methoxy-N-(5-(6-methoxypyridin-2-yl)-4-((S)-1-(1-methyl-1H-pyrazol-4-yl)ethyl)-4H-1,2,4-triazol-3-yl)propane-2-sulfonamide], 8.51; with `COCCn1c(NS(=O)(=O)[C@@H](C)[C@@H](OC(C)C)c2ncc(Cl)cn2)nnc1-c1ccccn1` [Example 23.0, (1S,2S)-1-(5-chloro-2-pyrimidinyl)-N-(4-(2-methoxyethyl)-5-(2-pyridinyl)-4H-1,2,4-triazol-3-yl)-1-(2-propanyloxy)-2-propanesulfonamide], 7.82. Regarding `COc1cccc(-c2nnc(NS(=O)(=O)[C@@H](C)[C@H](OC)c3ncc(Cl)cn3)n2[C@H](C)c2cncnc2)n1` (single isomer, unassigned) [Example 337.0, (1R,2S)-1-(5-chloropyrimidin-2-yl)-1-methoxy-N-(5-(6-methoxypyridin-2-yl)-4-((R)-1-(pyrimidin-5-yl)ethyl)-4H-1,2,4-triazol-3-yl)propane-2-sulfonamide or (1R,2S)-1-(5-chloropyrimidin-2-yl)-1-methoxy-N-(5-(6-methoxypyridin-2-yl)-4-((S)-1-(pyrimidin-5-yl)ethyl)-4H-1,2,4-triazol-3-yl)propane-2-sulfonamide], the negative-log EC50 (pEC50) was 8.85. With `COc1cccc(-c2nnc(NS(=O)(=O)[C@@H](C)[C@H](OC)c3ncc(Cl)cn3)n2[C@@H]2CC[C@H]2OC)n1` (single isomer, unassigned) [Example 161.0, (1R,2S)-1-(5-Chloropyrimidin-2-yl)-1-methoxy-N-(4-((1R,2R)-2-methoxycyclobutyl)-5-(6-methoxypyridin-2-yl)-4H-1,2,4-triazol-3-yl)propane-2-sulfonamide or (1R,2S)-1-(5-chloropyrimidin-2-yl)-1-methoxy-N-(4-((1S,2S)-2-methoxycyclobutyl)-5-(6-methoxypyridin-2-yl)-4H-1,2,4-triazol-3-yl)propane-2-sulfonamide] the figure was 8.66.

As to `CO[C@H](c1ncc(Cl)cn1)[C@H](C)S(=O)(=O)Nc1nnc(-c2ccccn2)n1C1(C)CC1` [Example 97.0], the negative logarithm of the EC50 (pEC50) is 7.96.
